From US4634783A, “Novel amidine compound” (Torii & Co. Ltd., priority 1983, dated 1987)
pIC50: −log10 of the molar value. Read-outs that look alike come from different tables or passages of the source.

Columns and labels:
[1] = target: T1, Trypsin (Bos taurus, UniProt P00760); test: anti-trypsin activity (hydrolysis of TAME); format: biochemical; settings: read-out: ID50 Trypsin
T1 sequence (P00760 24-246): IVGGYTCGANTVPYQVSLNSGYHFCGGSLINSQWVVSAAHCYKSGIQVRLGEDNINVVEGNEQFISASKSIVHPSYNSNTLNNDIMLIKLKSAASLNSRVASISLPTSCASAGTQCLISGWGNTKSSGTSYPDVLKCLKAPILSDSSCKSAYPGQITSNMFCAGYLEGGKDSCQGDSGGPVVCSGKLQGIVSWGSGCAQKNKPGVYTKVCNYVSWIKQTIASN
Experimental: (§1) The anti-trypsin, anti-plasmin, anti-kallikrein and anti-thrombin activities were determined according to the method of Muramatsu et al. [M. Muramatsu, T. Onishi, S. Makino, Y. Hayashi and S. Fujii, J. of Biochem., 58, 214 (1965)]. […] The compound No. corresponds to the compound number shown in Examples.

[2] = target: Plasmin (Homo sapiens, UniProt P00747); test: anti-plasmin activity (hydrolysis of TAME); format: biochemical; settings: for pIC50: TAME hydrolysis, read-out: ID50 Plasmin; for inhibition at 10 µM: at 1×10^-5 M, figure in parentheses, read-out: percentage inhibition Plasmin
Experimental: as §1

[3] = test system: Kallikrein; test: anti-kallikrein activity (hydrolysis of TAME); format: biochemical; settings: for pIC50: TAME hydrolysis, read-out: ID50 Kallikrein; for percentage inhibition Kallikrein: at 1×10^-5 M, figure in parentheses
Experimental: as §1

[4] = target: Thrombin (Homo sapiens, UniProt P00734); test: biochemical; settings: for pIC50: read-out: ID50 Thrombin; for inhibition at 10 µM: at 1×10^-5 M, figure in parentheses, read-out: percentage inhibition Thrombin
[5] = target: T2, C1r (Homo sapiens, UniProt P00736); test: anti-C1 esterase (C1r) activity (hydrolysis of AAME); format: biochemical; settings: for pIC50: AAME hydrolysis, read-out: ID50 C1r; for inhibition at 10 µM: at 1×10^-5 M, figure in parentheses, read-out: percent inhibition C1r
T2 sequence (P00736 464-705 limits assumed): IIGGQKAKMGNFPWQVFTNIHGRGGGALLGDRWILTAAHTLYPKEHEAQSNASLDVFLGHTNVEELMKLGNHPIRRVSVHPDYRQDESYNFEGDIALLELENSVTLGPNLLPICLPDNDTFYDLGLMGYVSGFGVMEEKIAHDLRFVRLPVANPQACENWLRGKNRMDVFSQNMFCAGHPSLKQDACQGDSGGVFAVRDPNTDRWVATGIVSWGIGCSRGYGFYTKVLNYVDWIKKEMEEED
T2 sequence (P00736 18-463 limits assumed): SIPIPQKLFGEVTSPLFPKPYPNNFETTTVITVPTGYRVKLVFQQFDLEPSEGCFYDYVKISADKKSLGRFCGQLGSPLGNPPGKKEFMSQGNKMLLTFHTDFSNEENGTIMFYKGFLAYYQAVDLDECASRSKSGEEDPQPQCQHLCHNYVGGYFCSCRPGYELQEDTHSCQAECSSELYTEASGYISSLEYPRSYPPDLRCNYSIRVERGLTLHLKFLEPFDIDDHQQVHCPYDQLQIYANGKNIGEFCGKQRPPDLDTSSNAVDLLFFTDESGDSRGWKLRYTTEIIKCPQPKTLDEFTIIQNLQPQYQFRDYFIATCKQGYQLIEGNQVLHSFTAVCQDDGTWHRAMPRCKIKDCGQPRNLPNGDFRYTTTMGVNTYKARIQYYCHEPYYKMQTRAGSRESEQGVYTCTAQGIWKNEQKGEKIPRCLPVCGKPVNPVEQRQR
Experimental: (§2) The anti-C1 esterase (C1r, C1s) activity was determined according to the method of Okamura et al. [K. Okamura, M. Muramatsu and B. Fujii, Biochem. Biophys. Acta, 295, 252-257 (1973)]. The inhibition of complement mediated hemolysis was determined according to the method of Baker et al. [B. R. Baker and E. H. Erickson, J. Med. Chem., 12, 408-414 (1969)]. The figures in Table 2 have the following meanings:
C1r: Molar concentration of the test compound which inhibits 50% of the ability of C1r to hydrolyse AAME (acetylarginin methyl ester) (ID50).

[6] = target: T3, C1s (Homo sapiens, UniProt P09871); test: anti-C1 esterase (C1s) activity (hydrolysis of ATEE); format: biochemical; settings: for pIC50: ATEE hydrolysis, read-out: ID50 C1s; for inhibition at 10 µM: at 1×10^-5 M, figure in parentheses, read-out: percent inhibition C1s
T3 sequence (P09871 438-688 limits assumed): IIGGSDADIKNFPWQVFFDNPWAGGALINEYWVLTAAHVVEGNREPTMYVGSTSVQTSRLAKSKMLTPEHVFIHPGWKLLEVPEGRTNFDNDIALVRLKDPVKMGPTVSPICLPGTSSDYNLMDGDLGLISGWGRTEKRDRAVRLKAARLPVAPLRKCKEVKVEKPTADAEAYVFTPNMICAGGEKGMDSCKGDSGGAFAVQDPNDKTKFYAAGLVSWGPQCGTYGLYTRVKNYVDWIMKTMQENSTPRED
T3 sequence (P09871 16-437 limits assumed): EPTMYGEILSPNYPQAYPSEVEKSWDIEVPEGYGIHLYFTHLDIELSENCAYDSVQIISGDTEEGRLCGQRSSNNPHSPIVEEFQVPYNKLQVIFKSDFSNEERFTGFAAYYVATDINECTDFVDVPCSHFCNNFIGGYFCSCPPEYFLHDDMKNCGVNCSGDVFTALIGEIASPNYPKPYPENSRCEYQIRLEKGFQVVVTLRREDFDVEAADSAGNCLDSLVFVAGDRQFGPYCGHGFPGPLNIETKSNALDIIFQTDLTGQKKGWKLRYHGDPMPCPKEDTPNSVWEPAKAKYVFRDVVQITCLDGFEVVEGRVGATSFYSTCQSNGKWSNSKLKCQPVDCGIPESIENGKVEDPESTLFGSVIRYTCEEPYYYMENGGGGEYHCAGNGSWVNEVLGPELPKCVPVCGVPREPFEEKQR
Experimental: as §2
C1s: Molar concentration of the test compound which inhibits 50% of the ability of C1s to hydrolyse ATEE (acetyltyrosin ethyl ester) (ID50).

[7] = test system: complement mediated hemolysis; test: inhibition of complement mediated hemolysis; format: cell-based
Experimental: The complement mediated hemolysis is widely used as a means to determine the titration of complement. The principle of this method is based on the fact that hemolysis is caused by the activation of complement, when the latter is added to a complex (immune complex) of erythrocytes and the antibody thereof. The degree of hemolysis varies in proportion to the amount of complement added. Therefore, when a known amount of complement admixed with a C1 esterase inhibitor is used, the hemolysis must be suppressed in proportion to the inhibitory activity.
as §2
Inhibition of complement mediated hemolysis (%): The inhibitory activity is shown in terms of percent inhibition of the compound at varied concentrations: […]

[8] = test system: Forssman shock; test: Forssman shock; format: in vivo; settings: test compound 3 mg/kg before hemolysin i.v.; male Hartlay guinea pig; control death at 278, 318, 296 sec.
Source text: Quite different from other animals, guinea pig has on the surface of its organs a specific antigen called Forssman antigen which specifically reacts with the antibody of sheep erythrocyte. Forssman shock is based on the above principle and is a shock caused by the administration of antibody of sheep erythrocyte to a guinea pig. The Forssman shock was investigated in detail by many researches and it was definitely shown that this shock is a model case where the complement plays the principal part and that the shock is associated with a classical pathway in which the complement system is activated progressively starting from C1. Since the participation of complement in autoimmune diseases has been established, the Forssman shock can be said to be a useful means for testing a drug for autoimmune diseases. A drug effective for the treatment of Forssman shock is useful as a drug of autoimmune diseases.
The experiment was performed according to the method of I. G. Offerness et al. [Biochem. Pharmacol., 27 (14), 1873-1878 (1978)]. Male Hartlay guinea pig of about 300 g in body weight was used. Each guinea pig of the control group was administered intravenously with hemolysin (minimum dose to cause the shock) (commercial hemolysin, 5,000 U as assayed by the method of Ogata) and the time elapsed until death was observed. […]

[9] = Toxicity: median lethal dose (LD50); settings: in vivo, mouse

Sequence of Plasmin (P00747 581-810 limits assumed, species assumed): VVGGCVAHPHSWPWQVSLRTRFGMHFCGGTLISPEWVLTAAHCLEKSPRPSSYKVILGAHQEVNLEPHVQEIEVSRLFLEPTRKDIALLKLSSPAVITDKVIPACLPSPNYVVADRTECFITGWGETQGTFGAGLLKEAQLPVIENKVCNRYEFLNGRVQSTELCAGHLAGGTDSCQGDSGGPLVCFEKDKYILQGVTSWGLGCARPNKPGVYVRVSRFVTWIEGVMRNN
Sequence of Plasmin (P00747 97-580 limits assumed, species assumed): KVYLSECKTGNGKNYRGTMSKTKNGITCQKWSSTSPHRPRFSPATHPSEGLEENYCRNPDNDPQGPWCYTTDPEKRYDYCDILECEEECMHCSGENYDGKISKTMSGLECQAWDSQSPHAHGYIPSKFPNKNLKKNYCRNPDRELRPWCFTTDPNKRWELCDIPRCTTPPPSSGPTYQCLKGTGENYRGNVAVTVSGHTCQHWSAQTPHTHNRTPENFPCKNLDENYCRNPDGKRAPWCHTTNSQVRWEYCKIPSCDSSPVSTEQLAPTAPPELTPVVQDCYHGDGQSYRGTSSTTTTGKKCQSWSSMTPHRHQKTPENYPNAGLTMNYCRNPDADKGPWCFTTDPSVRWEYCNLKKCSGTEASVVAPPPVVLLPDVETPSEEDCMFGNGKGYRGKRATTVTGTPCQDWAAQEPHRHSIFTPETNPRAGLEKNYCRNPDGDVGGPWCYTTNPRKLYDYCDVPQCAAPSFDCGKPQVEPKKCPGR

Structure (SMILES) | pIC50 [1] | pIC50 [2] | pIC50 [3] | pIC50 ([4]; TAME hydrolysis) | pIC50 [5] | pIC50 [6] | Inhibition of complement mediated hemolysis ([7]; 1 × 10^-4) [%] | Inhibition of complement mediated hemolysis ([7]; 1 × 10^-5) [%] | Inhibition of complement mediated hemolysis ([7]; 1 × 10^-6) [%] | Inhibition of complement mediated hemolysis ([7]; 1 × 10^-7) | time elapsed until death (survival) in Forssman shock [8] | LD50 ([9]; ip, I.P.) [mg/kg] | LD50 ([9]; po, P.O.) [mg/kg] | percentage inhibition Kallikrein [3] | inhibition at 10 µM [6] [%] | pIC50 [4] | inhibition at 10 µM [2] [%] | inhibition at 10 µM [4] [%] | inhibition at 10 µM [5] [%]
COc1ccc(C(=O)Oc2ccc3cc(C(=N)N)ccc3c2)o1 [Compound No. 1, 6-amidino-2-naphthyl 5-methoxy-furan-2-carboxylate] | 8.00 | 6.40 | 6.52 | 6.70 | 7.22 | 6.70 | 100 | 100 | 98 | 99% | Survival | 200 | 2500 | – | – | – | – | – | –
N=C(N)c1ccc2cc(OC(=O)C=Cc3ccco3)ccc2c1 [compound 14] | 6.00 | 6.52 | 5.30 | 5.15 | 5.52 | 6.40 | 98 | 94 | 72 | 20% | – | – | – | – | – | – | – | – | –
N=C(N)c1ccc2cc(OC(=O)c3cc4ccccc4o3)ccc2c1 [compound 16] | 5.70 | 5.52 | – | 5.15 | 5.40 | – | 100 | 99 | 99 | 98% | – | – | – | NE (the percentage inhibition is less than 10%) | < 10 | – | – | – | –
COc1ccc2oc(C(=O)Oc3ccc4cc(C(=N)N)ccc4c3)cc2c1 [compound 17] | 5.52 | 5.52 | – | 5.70 | 5.40 | 5.22 | 100 | 100 | 95 | 90% | – | – | – | NE (the percentage inhibition is less than 10%) | – | – | – | – | –
N=C(N)c1ccc2cc(OC(=O)c3cccs3)ccc2c1 [compound 22] | 6.70 | 6.52 | 5.70 | 6.70 | 7.15 | 6.52 | 100 | 96 | 58 | 34% | – | – | – | – | – | – | – | – | –
Cc1ccc(C(=O)Oc2ccc3cc(C(=N)N)ccc3c2)s1 [compound 23] | > 8.00 | 6.52 | 5.70 | – | 6.15 | 6.40 | 100 | 99 | 95 | 91% | – | – | – | – | – | 5.52 | – | – | –
N=C(N)c1ccc2cc(OC(=O)c3ccc[nH]3)ccc2c1 [compound 28] | 5.22 | – | – | – | – | 6.52 | 88 | 55 | 28 | NE (the percentage inhibition is less than 10%) | – | – | – | NE (the percentage inhibition is less than 10%) | – | – | < 10 | < 10 | 31
N=C(N)c1ccc2cc(OC(=O)c3ccccn3)ccc2c1 [compound 45] | 5.30 | 5.15 | – | 5.40 | – | – | 100 | 98 | 75 | 46% | – | – | – | NE (the percentage inhibition is less than 10%) | 20 | – | – | – | 18
N=C(N)c1ccc2cc(OC(=O)c3ccc([N+](=O)[O-])o3)ccc2c1 [compound 65, 6-amidino-2-naphthyl 5-nitrofuran-2-carboxylate] | 6.10 | – | – | – | – | – | 100 | 100 | 89 | 80% | – | – | – | NE (the percentage inhibition is less than 10%) | 28 | – | < 10 | 13 | 30
